Where a name gives a salt, the structure may show the parent alone. Read-outs that look alike come from different tables or passages of the source. Blank lines part the entries; values can stand above or below the compound they belong to.
Legend:
4T1 cells = experiment: growth of 4T1 cells over 48 h, 96-well plate assay; type: cell-based, mouse; settings: 4T1, 48 h
Protocol: (§1) HeLa (ATCC CCL2) cells were grown in 150 cm^2 flasks in Minimal Essential Medium (Gibco), pH 7.4, at 37° C. with 10% bovine calf serum (heat inactivated, plus 50 mg/l gentamicin sulfate (Sigma). A mouse mammary tumor subpopulation line 4T1 arising from a BALB/cfC3H mouse (Miller et al., 1981, Brit. J. Cancer 56:561 and Miller et al., 1990, Invasion Metastasis 10:101) was grown in DME 10, Dulbecco's modified Eagle's medium supplemented with 5% fetal calf serum, 5% newborn calf serum, 1 mM mixed non-essential amino acids, 2 mM L-glutamine, penicillin (100 units/ml), and streptomycin (100 μg/ml).
Cells were quantitated using a standard cytotoxicity assay (Matthews & Neale, 1987, In Lymphokines and Interferons. A Practical Approach. Clemens, M. J. et al., eds. IRL Press, Oxford, p. 221).

HeLa cells = experiment: growth of HeLa cells in culture, 96-well plate assay; type: cell-based, human; settings: for A580, % of no addition / Growth, % of control: HeLa; for Growth, % of control: no source
[1] = target: T1, NADH oxidase (tNOX) of 4T1 cells (Mus musculus, UniProt Q8R0Z2); experiment: inhibition of NADH oxidase (tNOX) activity of 4T1 cells; type: biochemical
T1 construct: endogenous in cells; host or cells: 4T1 mouse mammary tumor cells
T1 sequence (Q8R0Z2 1-598): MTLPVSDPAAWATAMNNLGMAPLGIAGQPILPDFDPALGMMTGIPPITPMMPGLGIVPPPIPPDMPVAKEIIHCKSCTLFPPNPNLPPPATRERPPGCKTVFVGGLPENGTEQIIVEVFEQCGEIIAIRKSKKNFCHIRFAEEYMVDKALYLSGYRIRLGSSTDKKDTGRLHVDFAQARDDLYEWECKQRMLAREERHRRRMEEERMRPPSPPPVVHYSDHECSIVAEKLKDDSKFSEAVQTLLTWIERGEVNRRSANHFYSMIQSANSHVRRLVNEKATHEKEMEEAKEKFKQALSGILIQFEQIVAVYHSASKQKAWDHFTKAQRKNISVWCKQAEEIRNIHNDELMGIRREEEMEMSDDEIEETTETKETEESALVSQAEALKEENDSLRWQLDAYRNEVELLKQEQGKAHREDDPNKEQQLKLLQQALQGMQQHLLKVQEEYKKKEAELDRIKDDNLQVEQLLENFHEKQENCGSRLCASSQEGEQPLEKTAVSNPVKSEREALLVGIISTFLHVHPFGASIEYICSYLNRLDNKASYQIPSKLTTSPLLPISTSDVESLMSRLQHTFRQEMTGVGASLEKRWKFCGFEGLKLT
Protocol: as §1
(§2) NADH oxidase activity may be monitored and measured by virtue of the decrease in absorbance at 340 nm wavelength. A millimolar extinction coefficient of 6.22 for NADH was used to calculate rates of NADH oxidation. Additional tests are such as those described by Morre, 1994, Bioenerg. Biomemb. 26:421, and Chueh et al., 1997, J. Biol. Chem. 272:11221, which are incorporated by reference in their entireties.

[2] = target: T2, NADH oxidase (tNOX) of HeLa cells (Homo sapiens, UniProt Q16206); experiment: inhibition of NADH oxidase (tNOX) activity of HeLa cells; type: biochemical
T2 construct: endogenous in cells; host or cells: HeLa (ATCC CCL2)
T2 sequence (Q16206 1-610): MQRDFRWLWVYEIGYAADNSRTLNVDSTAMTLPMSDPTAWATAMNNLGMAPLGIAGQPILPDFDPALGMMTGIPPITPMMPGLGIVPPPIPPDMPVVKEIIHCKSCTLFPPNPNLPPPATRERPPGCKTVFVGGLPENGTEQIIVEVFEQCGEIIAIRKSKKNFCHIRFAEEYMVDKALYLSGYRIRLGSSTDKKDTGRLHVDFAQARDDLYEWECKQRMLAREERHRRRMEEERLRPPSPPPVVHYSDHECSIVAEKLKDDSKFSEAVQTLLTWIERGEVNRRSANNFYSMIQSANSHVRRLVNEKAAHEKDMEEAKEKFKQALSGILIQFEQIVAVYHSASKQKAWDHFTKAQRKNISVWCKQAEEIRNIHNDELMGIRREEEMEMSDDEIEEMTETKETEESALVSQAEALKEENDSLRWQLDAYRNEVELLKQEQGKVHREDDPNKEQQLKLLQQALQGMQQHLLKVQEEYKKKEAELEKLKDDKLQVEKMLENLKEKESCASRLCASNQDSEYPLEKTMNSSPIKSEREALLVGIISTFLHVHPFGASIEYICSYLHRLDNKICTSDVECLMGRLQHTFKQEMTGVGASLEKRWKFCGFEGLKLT
Protocol: as §1, §2

[3] = tested on: 4T1 mouse mammary carcinoma cells; experiment: tumor weight and metastases of 4T1 mouse mammary carcinoma cells in BALBc mice; type: in vivo
Protocol: Cells from monolayer culture were suspended in Hank's buffered salt solution and 1×10^6 cells were injected into the subscapular region in a volume of 0.1 ml.
Anti-metastatic drugs were administered in the dose/injection indicated intratumoral in 0.1 ml total volume on alternate days beginning after palpable tumor masses were discernible (approximately 7 days post implantation) for a total of 6 injections. Appropriate solvent and sham-injected controls were included. At […] post tumor implantations, mice were sacrificed and major organs (e.g., lung, liver, lymph nodes) were examined for evidence of metastases.

cancer cells = experiment: cancer cell growth and apoptosis under EGCg; type: cell-based
[4] = clearance of EGCg from the blood; settings: in vivo
NADH oxidase = target: T3, NADH oxidase (Homo sapiens, UniProt Q16206); experiment: NADH oxidase assay, genestein interactions (data not shown); type: biochemical
T3 sequence (Q16206 1-610): T2 sequence (Q16206 1-610)
Excerpt: as §2

Compound: COc1cc(CN)ccc1O [Vanillylamine, 4-hydroxy-3-methoxybenzy amine hydrochloride]
A580, % of no addition (4T1 cells; final concentration 1 μM): 144 % of no addition
A580, % of no addition (HeLa cells; 48 h, final concentration 1 μM): 128 % of no addition
Growth, % of control (HeLa cells; 48 h, vanillylamine 1:150): 130 % of control
Growth, % of control (HeLa cells; 72 h, vanillylamine 1:150): 120 % of control
EC50 ([1]; 4T1, 1.5 × 10^6 cells (Table 2), read-out: EC50(M), inhibition of NADH oxidase): 5e-09 M
EC50 ([2]; HeLa, 1.5 × 10^6 cells (Table 2), read-out: EC50(M), inhibition of NADH oxidase): 1e-09 M
Tumor weight ([3]; BALBc mice, intratumoral on alternate days, 6 injections, sacrifice 15 days post implantation): 0.50 ± 0.20
neurological discomfort and possible toxicity ([3]; mouse model): without the neurological discomfort and possible toxicity
prevention of metastasis in a mouse model ([3]; mouse model): effective
Tumor growth and metastatic spread ([3]; three animals): prevented

EC50 ([1]; 4T1 cells grown in culture (Table 3), read-out: EC50(M), inhibition of tNOX activity): 1e-08 M
EC50 ([2]; HeLa cells grown in culture (Table 3), read-out: EC50(M), inhibition of tNOX activity): 1e-07 M
Compound: (−)-epigallocatechin gallate [EGCg]
A580, % of no addition (4T1 cells; final concentration 20 μM): 58 % of no addition
inhibition of growth of HeLa cells (HeLa cells; EGCg at 1 μM): 12%
A580, % of no addition (HeLa cells; 48 h, final concentration 20 μM): 90 % of no addition
Growth, % of control (HeLa cells; 48 h, EGCg 1:150): 112 % of control
Growth, % of control (HeLa cells; 72 h, EGCg 1:150): 97 % of control
growth of cancer cells (cancer cells; challenged with 10^−7 M EGCg every two hours during the day): inhibited
reversibility of the effect on cancer cell growth (cancer cells; if the EGCg is removed, cancer cells resume normal rates of growth): reversible
clearance from the blood [4]: rapidly cleared from the blood and metabolized

Compound: O=c1c(-c2ccc(O)cc2)coc2cc(O)cc(O)c12 [genestein]
growth of HeLa cells (HeLa cells; data not shown): inhibited
interactions of genestein with EC or Tegreen (HeLa cells; data not shown): additive
inhibition of growth of HeLa cells (HeLa cells; genestein at 10 μM): 87%
toxicity (HeLa cells; genestein at 100 μM): toxic
interactions with EGCg on growth of HeLa cells (HeLa cells; higher genestein concentrations): no interactions were seen
interactions with 1 μM EGCg on growth of HeLa cells (HeLa cells; low genestein concentrations, data not shown): additive
synergy with either vanillylamine or EGCg in the NADH oxidase assay (NADH oxidase): did not exhibit

Source: US6759064B2, “Compositions based on vanilloid-catechin synergies for prevention and treatment of cancer” (Purdue Research Foundation, priority 2001, dated 2004)
